PMC10458893, “Design of Protegrin-1 Analogs with Improved Antibacterial Selectivity” (Pharmaceutics, 2023)
≈ marks a conversion by molar mass, not a printed value. Read-outs that look alike come from different tables or passages of the source. Positions of bridges follow the written chain, without caps; N, C: chain ends. Residues, ends and D or L forms follow the SMILES beside them.

Legend:
[1] = system: freshly isolated human erythrocytes (hRBCs); assay: Hemolysis assay (hemoglobin release); type: cell-based
Text: To assess the hemolytic activity of the compounds, freshly isolated human erythrocytes (hRBCs) were used according to the methodology described in a previous study. Melittin was used as a positive peptide control that induces significant hemolysis. Isotonic phosphate buffer (PBS) served as a negative control, while 0.1% Triton X-100 solution was used as a control for complete hemolysis.

[2] = system: human keratinocyte cell line (HaCaT); assay: Cytotoxicity MTT assay; type: cell-based
Protocol: In order to evaluate the cytotoxicity of the peptides against a human keratinocyte cell line (HaCaT, Cat. No. 300493) (Cell Lines Service, Köln, Germany), the colorimetric 3-(4,5-dimethylthiazol-2-yl)-2,5-diphenyltetrazolium bromide (MTT) dye reduction assay was performed, as described in a previous publication. Wells containing no peptide were used as a 100% survival control. Each peptide was tested in two separate experiments to ensure the reliability of the results.

[3] = system: P. aeruginosa PAO1; type: cell-based, Pseudomonas aeruginosa; conditions: PAO1, 24 h
Protocol: (§1) The antimicrobial activity of the peptides was determined using two-fold serial dilutions in sterile 96-well flat-bottom polystyrene microplates (Eppendorf, Hamburg, Germany) (Cat. No. 0030730011), as previously described. The following strains of bacteria were used: E. coli ATCC 25922, E. coli ML35p (ATCC collection), E. coli BW 25113 (Keio collection), Pseudomonas aeruginosa PAO1 (ATCC collection), P. aeruginosa ATCC 27853, Klebsiella pneumoniae ATCC 700603, Staphylococcus aureus 209P (ATCC collection), S. aureus ATCC 29213, and Micrococcus luteus B-1314 (VKM collection). Acinetobacter baumannii (strain XDR CI 2675) was provided by the I.M. Sechenov First Moscow State Medical University hospital. After a 24 h incubation period, the metabolic activity of the bacteria was assessed by adding 20 µL of a redox indicator, resazurin (Sigma-Aldrich, St. Louis, MO, USA), at a concentration of 0.1 mg/mL, to the wells. The plate was then incubated for a further two hours. The minimum inhibitory concentration (MIC) was determined as the lowest concentration of the peptide at which no color change in the resazurin indicator was observed. The results were presented as median values, which were determined based on at least three independent experiments carried out in triplicate.

[4] = system: P. aeruginosa ATCC 27853; type: cell-based, Pseudomonas aeruginosa; conditions: ATCC 27853, 24 h
Protocol: as §1

[5] = system: M. luteus B-1314; type: cell-based, Micrococcus luteus; conditions: B-1314, 24 h
Protocol: as §1

[6] = system: E. coli ML35p; type: cell-based
Protocol: as §1

[7] = system: Acinetobacter baumannii (strain XDR CI 2675); type: cell-based
Protocol: as §1

[8] = system: E. coli BW 25113; type: cell-based; conditions: two-fold serial dilutions, 24 h incubation, resazurin read-out; median of at least three independent experiments in triplicate
Protocol: as §1

[9] = system: E. coli ATCC 25922; type: cell-based; conditions: ATCC 25922, 24 h
Protocol: as §1

[10] = system: K. pneumoniae ATCC 700603; type: cell-based, Klebsiella pneumoniae; conditions: ATCC 700603, 24 h
Protocol: as §1

[11] = system: S. aureus 209P; type: cell-based, Staphylococcus aureus; conditions: 24 h
Protocol: as §1

[12] = system: S. aureus ATCC 29213; type: cell-based, Staphylococcus aureus; conditions: ATCC 29213, 24 h
Protocol: as §1

Row | SMILES | Hemolytic activity, % (64 μM) ([1]; 64 μM peptide, 1.5 h incubation, hemoglobin release, fresh hRBCs, 0.1% Triton X-100 = complete hemolysis, mean ± SD of two independent experiments) | Cell Viability, % (128 μM) ([2]; 128 μM peptide, HaCaT, MTT assay, 18 h incubation (legend; text says 24 h), mean ± SD of two independent experiments) | Hemolytic activity, % (64 μM) ([1]; red cells of human, 64) | MIC, P. aeruginosa PAO1 [3] [µM] | MIC, P. aeruginosa ATCC 27853 [4] [µM] | MIC, M. luteus B-1314 [5] [µM] | MIC, E. coli ML35p ([6]; ML35p, 24 h) [µM] | MIC, A. baumannii ([7]; strain XDR CI 2675, 24 h) [µM] | MIC, E. coli BW 25113 [8] [µM] | MIC, E. coli ATCC 25922 [9] [µM] | MIC, K. pneumoniae ATCC 700603 [10] [µM] | Cell Viability, % (128 μM) ([2]; 18 h, 128) | MIC, S. aureus 209P [11] [µM] | MIC, S. aureus ATCC 29213 [12] [µM] | MIC, E. coli ML35p ([6]; two-fold serial dilutions, 24 h incubation, resazurin read-out, median of at least three independent experiments in triplicate) [µM] | MIC, A. baumannii ([7]; strain XDR CI 2675, two-fold serial dilutions, 24 h incubation, resazurin read-out, median of at least three independent experiments in triplicate) [µM]
1 | CC[C@H](C)[C@H](NC(=O)CN)C(=O)NCC(=O)N[C@@H](C)C(=O)N[C@H](C(=O)N[C@@H](CC(C)C)C(=O)N[C@@H](CCCCN)C(=O)N[C@H](C(=O)N[C@@H](CC(C)C)C(=O)N[C@H](C(=O)N[C@H](C(=O)NCC(=O)N[C@@H](CC(C)C)C(=O)N1CCC[C@H]1C(=O)N[C@@H](C)C(=O)N[C@@H](CC(C)C)C(=O)N[C@H](C(=O)N[C@@H](CO)C(=O)N[C@@H](Cc1c[nH]c2ccccc12)C(=O)N[C@H](C(=O)N[C@@H](CCCCN)C(=O)N[C@@H](CCCNC(=N)N)C(=O)N[C@@H](CCCCN)C(=O)N[C@@H](CCCNC(=N)N)C(=O)N[C@@H](CCC(N)=O)C(=O)N[C@@H](CCC(N)=O)C(N)=O)[C@@H](C)CC)[C@@H](C)CC)[C@@H](C)O)[C@@H](C)O)C(C)C)C(C)C [Melittin, reference compound] | 96.0 (±7.12) % | 4.1 (± 4.07) % | – | – | – | – | – | – | – | – | – | – | – | – | – | –
2 | CC(C)C[C@H](NC(=O)[C@H](CCCNC(=N)N)NC(=O)CNC(=O)CNC(=O)[C@@H](N)CCCNC(=N)N)C(=O)N[C@H]1CSSC[C@@H](C(=O)N[C@@H](CCCNC(=N)N)C(=O)NCC(=O)N[C@@H](CCCNC(=N)N)C(=O)O)NC(=O)[C@H](C(C)C)NC(=O)[C@@H]2CSSC[C@H](NC(=O)[C@H]([C@@H](C)O)NC1=O)C(=O)N[C@@H](CCCNC(=N)N)C(=O)N[C@@H](CCCNC(=N)N)C(=O)N[C@@H](CCCNC(=N)N)C(=O)N[C@@H](Cc1ccccc1)C(=O)N2 [[Y7T,V16R]] (H-RGGRLCTCRRRFCVCRGR-OH; disulfide 6-15, 8-13; N-terminus and C-terminus assumed) | – | – | 1.4 (±0.66) % | >32 | >32 | 4 (≈ 8.61 µg/mL) | 4 (≈ 8.61 µg/mL) | 4 (≈ 8.61 µg/mL) | 8 (≈ 17.2 µg/mL) | 8 (≈ 17.2 µg/mL) | >32 | 72.8 (± 5.46) % | >32 | >32 | – | –
3 | CC(C)[C@H](NC(=O)[C@@H]1CSSC[C@H](NC(=O)[C@H](C)NC(=O)[C@H](CCCNC(=N)N)NC(=O)CNC(=O)CNC(=O)[C@@H](N)CCCNC(=N)N)C(=O)N[C@@H](Cc2ccc(O)cc2)C(=O)N[C@H]2CSSC[C@H](NC(=O)[C@H](Cc3ccccc3)NC(=O)[C@H](CCCNC(=N)N)NC(=O)[C@H](CCCNC(=N)N)NC(=O)[C@H](CCCNC(=N)N)NC2=O)C(=O)N[C@@H](C)C(=O)N1)C(=O)NCC(=O)N[C@@H](CCCNC(=N)N)C(=O)O [[L5A,V14A]] (H-RGGRACYCRRRFCACVGR-OH; disulfide 6-15, 8-13; N-terminus and C-terminus assumed) | – | – | 4.2 (±1.08) % | 1 (≈ 2.09 µg/mL) | 1 (≈ 2.09 µg/mL) | 4 (≈ 8.35 µg/mL) | 0.5 (≈ 1.04 µg/mL) | 0.25 (≈ 0.522 µg/mL) | 0.5 (≈ 1.04 µg/mL) | 0.5 (≈ 1.04 µg/mL) | 8 (≈ 16.7 µg/mL) | 38.3 (± 7.19) % | 4 (≈ 8.35 µg/mL) | >32 | – | –
4 | CC(C)C[C@H](NC(=O)CNC(=O)CNC(=O)[C@@H](N)CCCNC(=N)N)C(=O)N[C@H]1CSSC[C@@H](C(=O)N[C@H](C(=O)NCC(=O)N[C@@H](CCCNC(=N)N)C(N)=O)C(C)C)NC(=O)[C@H](C(C)C)NC(=O)[C@@H]2CSSC[C@H](NC(=O)[C@H](Cc3ccc(O)cc3)NC1=O)C(=O)N[C@@H](CCCNC(=N)N)C(=O)NCC(=O)N[C@@H](CCCNC(=N)N)C(=O)N[C@@H](Cc1ccccc1)C(=O)N2 [Iseganan, reference compound] (H-RGGLCYCRGRFCVCVGR-NH2; disulfide 5-14, 7-12) | – | – | 99.6 (±0.54) % | 8 (≈ 15.2 µg/mL) | 4 (≈ 7.6 µg/mL) | 0.5 (≈ 0.95 µg/mL) | – | – | – | 0.5 (≈ 0.95 µg/mL) | 4 (≈ 7.6 µg/mL) | 19.5 (±7.18) % | 2 (≈ 3.8 µg/mL) | 4 (≈ 7.6 µg/mL) | – | –
5 | CC(C)C[C@H](NC(=O)[C@H](CCCNC(=N)N)NC(=O)CNC(=O)CNC(=O)[C@@H](N)CCCNC(=N)N)C(=O)N[C@H]1CSSC[C@@H](C(=O)N[C@H](C(=O)NCC(=O)N[C@@H](CCCNC(=N)N)C(=O)O)C(C)C)NC(=O)[C@H](C(C)C)NC(=O)[C@@H]2CSSC[C@H](NC(=O)[C@H]([C@@H](C)O)NC1=O)C(=O)N[C@@H](CCCNC(=N)N)C(=O)N[C@@H](CCCNC(=N)N)C(=O)N[C@@H](CCCNC(=N)N)C(=O)N[C@@H](Cc1ccccc1)C(=O)N2 [[Y7T]] (H-RGGRLCTCRRRFCVCVGR-OH; disulfide 6-15, 8-13; N-terminus and C-terminus assumed) | – | – | 4.0 (±2.54) % | 2 (≈ 4.19 µg/mL) | 2 (≈ 4.19 µg/mL) | 4 (≈ 8.38 µg/mL) | – | – | 0.5 (≈ 1.05 µg/mL) | 1 (≈ 2.09 µg/mL) | 8 (≈ 16.8 µg/mL) | 15.0 (± 1.62) % | 16 (≈ 33.5 µg/mL) | 16 (≈ 33.5 µg/mL) | 0.5 (≈ 1.05 µg/mL) | 0.5 (≈ 1.05 µg/mL)
6 | CC(C)[C@@H]1NC(=O)[C@@H]2CSSC[C@H](NC(=O)[C@H](Cc3ccc(O)cc3)NC(=O)[C@@H](NC(=O)[C@H](C)NC(=O)[C@H](CCCNC(=N)N)NC(=O)CNC(=O)CNC(=O)[C@@H](N)CCCNC(=N)N)CSSC[C@@H](C(=O)N[C@@H](C)C(=O)NCC(=O)N[C@@H](CCCNC(=N)N)C(=O)O)NC1=O)C(=O)N[C@@H](CCCNC(=N)N)C(=O)N[C@@H](CCCNC(=N)N)C(=O)N[C@@H](CCCNC(=N)N)C(=O)N[C@@H](Cc1ccccc1)C(=O)N2 [[L5A,V16A]] (H-RGGRACYCRRRFCVCAGR-OH; disulfide 6-15, 8-13; N-terminus and C-terminus assumed) | – | – | 3.6 (±1.72) % | 1 (≈ 2.09 µg/mL) | 1 (≈ 2.09 µg/mL) | 4 (≈ 8.35 µg/mL) | 0.5 (≈ 1.04 µg/mL) | 0.25 (≈ 0.522 µg/mL) | 0.5 (≈ 1.04 µg/mL) | 0.5 (≈ 1.04 µg/mL) | 8 (≈ 16.7 µg/mL) | 17.0 (± 2.18) % | 4 (≈ 8.35 µg/mL) | >32 | – | –
